Blank lines part the entries; values can stand above or below the compound they belong to.
How the values were obtained:
Adenosine receptor A3 [1] = target: T1, Adenosine receptor A3 (Rattus norvegicus, UniProt P28647)
T1 sequence (P28647 whole entry): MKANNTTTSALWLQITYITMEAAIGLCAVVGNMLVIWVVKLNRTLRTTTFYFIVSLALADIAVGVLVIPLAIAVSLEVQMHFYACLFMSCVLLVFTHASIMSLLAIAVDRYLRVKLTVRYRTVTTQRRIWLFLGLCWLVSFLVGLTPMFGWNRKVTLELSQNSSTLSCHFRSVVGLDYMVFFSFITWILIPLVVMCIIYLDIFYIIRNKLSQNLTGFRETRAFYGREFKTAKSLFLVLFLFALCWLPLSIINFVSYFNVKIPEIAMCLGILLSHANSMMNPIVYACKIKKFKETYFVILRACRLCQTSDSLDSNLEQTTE

Adenosine receptor A1 [2] = target: T2, Adenosine receptor A1 (Cavia porcellus, UniProt P47745); experiment: Binding affinity to guinea pig adenosine A1 receptor
T2 sequence (P47745 whole entry): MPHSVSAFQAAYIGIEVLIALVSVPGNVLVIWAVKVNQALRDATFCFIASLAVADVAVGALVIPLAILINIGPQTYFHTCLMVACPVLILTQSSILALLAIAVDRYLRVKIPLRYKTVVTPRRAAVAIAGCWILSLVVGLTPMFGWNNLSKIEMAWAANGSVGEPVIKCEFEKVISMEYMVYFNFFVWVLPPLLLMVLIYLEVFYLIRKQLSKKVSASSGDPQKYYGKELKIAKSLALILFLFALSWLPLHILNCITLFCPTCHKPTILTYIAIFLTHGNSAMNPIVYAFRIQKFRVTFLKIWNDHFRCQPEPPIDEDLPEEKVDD

Adenosine receptor A2a [3] = target: Adenosine receptor A2a (Cavia porcellus, UniProt P46616); experiment: Binding affinity to guinea pig adenosine A2A receptor
Adenosine receptor A3 [4] = target: T3, Adenosine receptor A3 (Ovis aries, UniProt P35342); experiment: Binding affinity to sheep adenosine A3 receptor
T3 sequence (P35342 whole entry): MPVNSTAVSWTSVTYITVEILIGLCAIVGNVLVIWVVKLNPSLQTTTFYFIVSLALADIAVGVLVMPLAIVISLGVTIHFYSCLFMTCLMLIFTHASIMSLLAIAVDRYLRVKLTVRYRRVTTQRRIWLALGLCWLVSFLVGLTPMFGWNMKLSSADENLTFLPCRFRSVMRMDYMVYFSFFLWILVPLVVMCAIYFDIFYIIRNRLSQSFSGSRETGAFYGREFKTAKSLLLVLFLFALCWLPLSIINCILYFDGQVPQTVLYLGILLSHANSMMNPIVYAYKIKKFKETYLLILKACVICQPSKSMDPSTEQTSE

Adenosine receptor A1 [5] = target: T4, Adenosine receptor A1 (Homo sapiens, UniProt P30542); experiment: Binding affinity to human adenosine A1 receptor
T4 sequence (P30542 whole entry): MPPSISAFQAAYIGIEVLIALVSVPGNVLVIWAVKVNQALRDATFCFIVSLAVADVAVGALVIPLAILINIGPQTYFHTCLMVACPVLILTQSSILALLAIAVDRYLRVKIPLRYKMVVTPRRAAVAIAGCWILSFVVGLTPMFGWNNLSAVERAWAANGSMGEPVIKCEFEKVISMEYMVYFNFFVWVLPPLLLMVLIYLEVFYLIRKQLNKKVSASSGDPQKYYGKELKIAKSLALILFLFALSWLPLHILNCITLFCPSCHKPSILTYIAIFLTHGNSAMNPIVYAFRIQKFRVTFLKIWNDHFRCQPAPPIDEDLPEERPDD

[6] = target: T5, Adenosine receptor A2b (Homo sapiens) (UniProt P29275); experiment: Antagonist activity at human adenosine A2B receptor; assay type: functional
T5 sequence (whole entry): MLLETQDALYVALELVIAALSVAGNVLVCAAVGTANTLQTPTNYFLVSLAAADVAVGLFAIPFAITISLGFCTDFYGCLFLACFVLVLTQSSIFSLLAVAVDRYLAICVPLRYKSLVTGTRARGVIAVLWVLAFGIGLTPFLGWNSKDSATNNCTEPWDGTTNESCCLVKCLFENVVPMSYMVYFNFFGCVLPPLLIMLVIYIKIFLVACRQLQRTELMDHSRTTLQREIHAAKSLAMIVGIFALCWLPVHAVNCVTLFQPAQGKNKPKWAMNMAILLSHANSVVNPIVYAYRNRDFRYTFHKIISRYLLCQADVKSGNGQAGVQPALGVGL

Adenosine receptor A2a [7] = target: Adenosine receptor A2a (Homo sapiens, UniProt P29274)
Sequence of Adenosine receptor A2a (Homo sapiens, UniProt P29274) (P29274 whole entry): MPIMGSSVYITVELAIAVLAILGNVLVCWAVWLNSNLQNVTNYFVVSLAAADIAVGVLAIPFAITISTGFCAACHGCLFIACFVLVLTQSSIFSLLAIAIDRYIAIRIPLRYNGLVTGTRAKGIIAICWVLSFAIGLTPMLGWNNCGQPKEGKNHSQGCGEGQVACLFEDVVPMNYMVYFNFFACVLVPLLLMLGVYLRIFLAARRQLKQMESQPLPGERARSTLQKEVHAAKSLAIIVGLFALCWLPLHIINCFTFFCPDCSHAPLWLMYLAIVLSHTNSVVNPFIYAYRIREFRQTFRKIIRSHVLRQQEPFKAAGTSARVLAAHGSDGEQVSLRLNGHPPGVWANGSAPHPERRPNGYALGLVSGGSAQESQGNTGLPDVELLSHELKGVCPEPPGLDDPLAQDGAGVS

Sequence of Adenosine receptor A2a (Cavia porcellus, UniProt P46616) (P46616 whole entry): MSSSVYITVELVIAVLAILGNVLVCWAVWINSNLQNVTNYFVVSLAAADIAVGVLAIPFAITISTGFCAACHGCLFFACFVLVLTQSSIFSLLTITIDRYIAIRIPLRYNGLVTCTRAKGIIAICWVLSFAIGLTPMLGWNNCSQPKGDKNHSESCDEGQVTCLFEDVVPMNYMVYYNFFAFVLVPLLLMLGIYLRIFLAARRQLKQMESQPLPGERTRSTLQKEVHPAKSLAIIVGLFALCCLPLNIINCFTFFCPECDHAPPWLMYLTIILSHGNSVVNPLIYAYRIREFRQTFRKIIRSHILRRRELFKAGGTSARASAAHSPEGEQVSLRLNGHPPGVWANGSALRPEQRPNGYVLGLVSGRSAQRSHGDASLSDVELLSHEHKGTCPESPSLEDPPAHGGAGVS

Structure (SMILES): Cn1c(=O)c2[nH]cnc2n(C)c1=O [THEOPHYLLINE]
Ki (Adenosine receptor A3 [1]): 85 µM

Ki (Adenosine receptor A1 [2]): 0.375 µM
Ki (Adenosine receptor A2a [3]): 3.75 µM
Ki (Adenosine receptor A3 [4]): 0.0414 µM
Structure (SMILES): Cn1cnc2c(N[C@H]3C[C@H]4CC[C@@H]3C4)ncnc21

Ki (Adenosine receptor A1 [5]): > 10 µM
Kb [6]: 3.2 µM
Ki (Adenosine receptor A2a [7]): > 10 µM
Structure (SMILES): COc1cc(-c2nc(NC(C)=O)sc2-c2ccncc2)cc(OC)c1OC

— ChEMBL document CHEMBL1157642, “2-Amino-5-benzoyl-4-phenylthiazoles: Development of potent and selective adenosine A1 receptor antagonists” (Bioorg Med Chem, 2010)
